How the values were obtained:
Experiment in all cases: relative viability (nuclei count vs DMSO), 5 days (fraction); higher = more cells survive
NCI-H2228 = system: NCI-H2228
How it was run: (§1)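 Dosing by pin tool came one day after lung cancer cell lines were seeded in 1536-well plates, using either one drug or a fixed anchor-drug dose plus five library-drug doses (not always all listed) in √10 steps. After 5 days, nuclei were counted on 4× images. Relative viability is treated-well nuclei count divided by vehicle-well nuclei count, and values are medians of duplicate plates.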

PC-14 = system: PC-14
How it was run: as §1

NCI-H661 = system: NCI-H661
How it was run: as §1

SK-MES-1 = system: SK-MES-1
How it was run: as §1

CAL-12T = system: CAL-12T
How it was run: as §1

NCI-H2087 = system: NCI-H2087
How it was run: as §1

NCI-H1666 = system: NCI-H1666
How it was run: as §1

NCI-H1395 = system: NCI-H1395
How it was run: as §1

NCI-H358 = system: NCI-H358
How it was run: as §1

NCI-H838 = system: NCI-H838
How it was run: as §1

ABC-1 = system: ABC-1
How it was run: as §1

NCI-H1355 = system: NCI-H1355
How it was run: as §1

NCI-H1651 = system: NCI-H1651
How it was run: as §1

UMC-11 = system: UMC-11
How it was run: as §1

NCI-H2085 = system: NCI-H2085
How it was run: as §1

PC-3 [JPC-3] = system: PC-3 [JPC-3]
How it was run: as §1

LK-2 = system: LK-2
How it was run: as §1

NCI-H1915 = system: NCI-H1915
How it was run: as §1

H3255 = system: H3255
How it was run: as §1

A-427 = system: A-427
How it was run: as §1

LCLC-97TM1 = system: LCLC-97TM1
How it was run: as §1

NCI-H322M = system: NCI-H322M
How it was run: as §1

With `Cc1cnc(-c2cnc(NCCNc3ccc(C#N)cn3)nc2-c2ccc(Cl)cc2Cl)[nH]1` + Cc1cc(Nc2cc(N3CCN(C)CC3)nc(Sc3ccc(NC(=O)C4CC4)cc3)n2)n[nH]1 [Tozasertib] (partner 0.1 µM) the relative viability (NCI-H2228; first compound 0.08 µM) was 0.283, the relative viability (NCI-H2228; first compound 0.253 µM) was 0.267 and the relative viability (NCI-H2228; first compound 0.8 µM) was 0.297. The relative viability (NCI-H2228; first compound 2.53 µM) was 0.268, the relative viability (PC-14; first compound 0.08 µM) was 0.611 and the relative viability (PC-14; first compound 0.253 µM) was 0.47. For the same molecule, the relative viability (PC-14; first compound 0.8 µM) was 0.551, the relative viability (PC-14; first compound 2.53 µM) was 0.549 and the relative viability (NCI-H661; first compound 0.08 µM) was 0.361. For the same molecule, the relative viability (NCI-H661; first compound 0.253 µM) was 0.378, the relative viability (NCI-H661; first compound 0.8 µM) was 0.363 and the relative viability (NCI-H661; first compound 2.53 µM) was 0.341. The relative viability (SK-MES-1; first compound 0.08 µM) was 0.964, the relative viability (SK-MES-1; first compound 0.253 µM) was 0.854 and the relative viability (SK-MES-1; first compound 0.8 µM) was 0.999. It also gave a relative viability (SK-MES-1; first compound 2.53 µM) of 0.861, a relative viability (CAL-12T; first compound 0.08 µM) of 0.346 and a relative viability (CAL-12T; first compound 0.253 µM) of 0.302. It also gave a relative viability (CAL-12T; first compound 0.8 µM) of 0.234, a relative viability (CAL-12T; first compound 2.53 µM) of 0.211 and a relative viability (NCI-H2087; first compound 0.08 µM) of 0.249. It also gave a relative viability (NCI-H2087; first compound 0.253 µM) of 0.203, a relative viability (NCI-H2087; first compound 0.8 µM) of 0.211 and a relative viability (NCI-H2087; first compound 2.53 µM) of 0.128. The relative viability (NCI-H1666; first compound 0.08 µM) was 0.63, the relative viability (NCI-H1666; first compound 0.253 µM) was 0.593 and the relative viability (NCI-H1666; first compound 0.8 µM) was 0.623. It also gave a relative viability (NCI-H1666; first compound 2.53 µM) of 0.626, a relative viability (NCI-H1395; first compound 0.08 µM) of 0.778 and a relative viability (NCI-H1395; first compound 0.253 µM) of 0.856. It also gave a relative viability (NCI-H1395; first compound 0.8 µM) of 0.872, a relative viability (NCI-H1395; first compound 2.53 µM) of 0.756 and a relative viability (NCI-H358; first compound 0.08 µM) of 0.101. The relative viability (NCI-H358; first compound 0.253 µM) was 0.0983, the relative viability (NCI-H358; first compound 0.8 µM) was 0.137 and the relative viability (NCI-H358; first compound 2.53 µM) was 0.11. For the same molecule, the relative viability (NCI-H838; first compound 0.08 µM) was 0.293, the relative viability (NCI-H838; first compound 0.253 µM) was 0.235 and the relative viability (NCI-H838; first compound 0.8 µM) was 0.281. The relative viability (NCI-H838; first compound 2.53 µM) was 0.272, the relative viability (ABC-1; first compound 0.08 µM) was 0.213 and the relative viability (ABC-1; first compound 0.253 µM) was 0.158. It also gave a relative viability (ABC-1; first compound 0.8 µM) of 0.22, a relative viability (ABC-1; first compound 2.53 µM) of 0.221 and a relative viability (NCI-H1355; first compound 0.08 µM) of 0.662. For the same molecule, the relative viability (NCI-H1355; first compound 0.253 µM) was 0.474, the relative viability (NCI-H1355; first compound 0.8 µM) was 0.56 and the relative viability (NCI-H1355; first compound 2.53 µM) was 0.374. For the same molecule, the relative viability (NCI-H1651; first compound 0.08 µM) was 0.7, the relative viability (NCI-H1651; first compound 0.253 µM) was 0.648 and the relative viability (NCI-H1651; first compound 0.8 µM) was 0.682. It also gave a relative viability (NCI-H1651; first compound 2.53 µM) of 0.565, a relative viability (UMC-11; first compound 0.08 µM) of 0.19 and a relative viability (UMC-11; first compound 0.253 µM) of 0.191. It also gave a relative viability (UMC-11; first compound 0.8 µM) of 0.227, a relative viability (UMC-11; first compound 2.53 µM) of 0.213 and a relative viability (NCI-H2085; first compound 0.08 µM) of 0.886. The relative viability (NCI-H2085; first compound 0.253 µM) was 0.684, the relative viability (NCI-H2085; first compound 0.8 µM) was 0.56 and the relative viability (NCI-H2085; first compound 2.53 µM) was 0.469. It also gave a relative viability (PC-3 [JPC-3]; first compound 0.08 µM) of 0.872, a relative viability (PC-3 [JPC-3]; first compound 0.253 µM) of 0.849 and a relative viability (PC-3 [JPC-3]; first compound 0.8 µM) of 0.819. For the same molecule, the relative viability (PC-3 [JPC-3]; first compound 2.53 µM) was 0.719, the relative viability (LK-2; first compound 0.08 µM) was 0.164 and the relative viability (LK-2; first compound 0.253 µM) was 0.176. The relative viability (LK-2; first compound 0.8 µM) was 0.188, the relative viability (LK-2; first compound 2.53 µM) was 0.148 and the relative viability (NCI-H1915; first compound 0.08 µM) was 0.404. The relative viability (NCI-H1915; first compound 0.253 µM) was 0.322, the relative viability (NCI-H1915; first compound 0.8 µM) was 0.342 and the relative viability (NCI-H1915; first compound 2.53 µM) was 0.374. It also gave a relative viability (H3255; first compound 0.08 µM) of 0.951, a relative viability (H3255; first compound 0.253 µM) of 0.511 and a relative viability (H3255; first compound 0.8 µM) of 0.593. It also gave a relative viability (H3255; first compound 2.53 µM) of 0.65, a relative viability (A-427; first compound 0.08 µM) of 0.232 and a relative viability (A-427; first compound 0.253 µM) of 0.194. The relative viability (A-427; first compound 0.8 µM) was 0.235, the relative viability (A-427; first compound 2.53 µM) was 0.186 and the relative viability (LCLC-97TM1; first compound 0.08 µM) was 0.224. The relative viability (LCLC-97TM1; first compound 0.8 µM) was 0.171, the relative viability (LCLC-97TM1; first compound 2.53 µM) was 0.223 and the relative viability (NCI-H322M; first compound 0.08 µM) was 0.51. For the same molecule, the relative viability (NCI-H322M; first compound 0.253 µM) was 0.464, the relative viability (NCI-H322M; first compound 0.8 µM) was 0.438 and the relative viability (NCI-H322M; first compound 2.53 µM) was 0.466.
